These results are taken from patent US20080287396A1, “Phosphonated Fluoroquinolones, Antibacterial Analogs Thereof, and Methods for the Prevention and Treatment of Bone and Joint Infections” (TARGANTA THERAPEUTICA INC., priority 2005, published 2008).

For data set [1], the system named is Hela cells. Nature of the data set: Cytotoxicity assay (MTS reduction). The data set is classed as cell-based. Conditions: concentrations up to 100 μM, 18 h, MTS reagent; data not shown. Summed up: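 HeLa cells (2×10^4 per well) exposed to compound at 100, 50, 25 and 12.5 μM in DMEM with 1% bovine growth serum, 18 h at 37° C., 5% CO2. Growth inhibition read by MTS tetrazolium reduction.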

Data set [2] in a line: Regenerated moxifloxacin in infected and uninfected rat tibiae. The format is in vivo. Conditions: 52 IV 15.8 or 31.6 mg/kg one day after surgery; tibiae one and six days after treatment. The method, then: Rats were infected as in Example 7, and treated IV with either 15.8 or 31.6 mg/kg of body weight of prodrug 52 one day after surgery. One day and six days following the treatment, the tibiae were collected as described previously. The levels of regenerated moxifloxacin 3 were determined as follows.
The experimentally obtained whole tibia was ground to a powder which was suspended in 5% formic acid in methanol (500 mg/1.6 ml) to extract the released moxifloxacin 3. The mixture was vortexed for 10 minutes and centrifuged for 20 minutes at 1250 g.
Standards (from 5 to 1000 ng), QCs (25 and 250 ng) and blanks were prepared (in duplicate) as follows: to blank tibia powder (50 mg, not dried) was added the 5% formic acid solution in methanol (160 μl) and the spiking solution of moxifloxacin 3 in water (10 μl). The mixtures were vortexed for 10 minutes and centrifuged for 10 minutes at 2500 g. The supernatant was transferred into another vial, spiked with the internal standard, vortexed and evaporated to dryness. In each case, the resulting dried residues (samples, standards, QCs and blanks) were reconstituted in 200 μl of water, vortexed for 15 min and centrifuged for 15 min at 10 000 g. The solution (20 μl) was injected into the LC/MS. The LC/MS method is as described in Example 6.

As for `COc1c(N2CCNC(C)C2)c(F)cc2c(=O)c(C(=O)OCC(=O)NC(P(=O)(O)O)P(=O)(O)O)cn(C3CC3)c12` (centres unmarked) [Compound 54, (1,1-Bisphosphonomethylcarbamoyl)methyl 7-(3-methylpiperazin-1-yl)-1-cyclopropyl-6-fluoro-1,4-dihydro-8-methoxy-4-oxoquinoline-3-carboxylate], the cytotoxicity entry in data set [1] is reported as “no signs of any cytotoxicity”.

For `COc1c(N2C[C@@H]3CCCN[C@@H]3C2)c(F)cc2c(=O)c(C(=O)OCC(=O)NC(P(=O)(O)O)P(=O)(O)O)cn(C3CC3)c12` [Compound 52, (1,1-Bisphosphonomethylcarbamoyl)methyl 1-cyclopropyl-6-fluoro-1,4-dihydro-7-((4aS,7aS)-octahydropyrrolo[3,4-b]pyridin-6-yl)-8-methoxy-4-oxoquinoline-3-carboxylate], the “level of regenerated moxifloxacin 3, uninfected versus infected tibiae” value in data set [2] was “not significantly different”.
